Data as given in patent publication US7713994B2 (Wyeth LLC, priority 2005, dated 2010).
Like-named read-outs stand apart in the source and are kept apart here. One block for each compound: values may come before it.

Key:
[1] = test system: BT474; assay: Cytotoxicity assay (SRB), BT474; assay type: cell-based; details: Homo sapiens, BT-474, 144 h, read-out: In Vitro Cellular Activity IC50 BT474
Protocol: (§1) BT474, HCT-116, LoVo and MCF-7 were maintained under 7% CO2 in RPMI 1640 medium supplemented with 10% fetal bovine serum and 50 µg/ml gentamicin.
(§2) Cells were plated in 96-well microtiter dishes (12000 cells/well for BT474, 4000 cells/well for HCT-116, 6000 cells/well for LoVo and 6000 cells/well for MCF-7) in RPMI 1640 medium containing 5% fetal bovine serum and 50 µg/ml gentamicin. The cells were allowed to incubate overnight at 37° C., 7% CO2. Compound dilutions were prepared using the same medium. HCT-116, LoVo and MCF-7 cells were cultured for three days and BT474 cells were cultured for 6 days, in the presence of each compound dilution. Untreated cells were included as controls. The percentage of surviving cells was determined using a protein binding dye (sulforhodamineB, SRB) assay. Cellular protein was precipitated in each well by the addition of 0.05 ml of 50% cold trichloroacetic acid (TCA). After 1 hour, the plates were washed extensively in dH2O and dried. The sulforhodamineB dye solution (0.08 mL of 0.4% SRB in 1% acetic acid) was added to each well, kept at room temperature for ten minutes, then washed in 1% acetic acid and dried. The dye was dissolved in 10 mM Tris-HCl (150 uL) and the absorbency read at 540 nm.

[2] = test system: HCT-116; assay: Cytotoxicity assay (SRB), HCT-116; assay type: cell-based; details: Homo sapiens, HCT-116, 72 h, read-out: In Vitro Cellular Activity IC50 HCT116
Protocol: as §1, §2

[3] = test system: LoVo; assay: Cytotoxicity assay (SRB), LoVo; assay type: cell-based; details: Homo sapiens, LoVo, 72 h, read-out: In Vitro Cellular Activity IC50 LOVO
Protocol: as §1, §2

[4] = test system: MCF-7; assay: Cytotoxicity assay (SRB), MCF-7; assay type: cell-based; details: Homo sapiens, MCF7, 72 h, read-out: In Vitro Cellular Activity IC50 MCF-7
Protocol: as §1, §2

[5] = molecular target: T1, cyclin D1/cdk 4 enzyme (Homo sapiens, UniProt P11802); assay: CDK4 ELISA kinase assay (phospho-Rb ser 795 detection); assay type: biochemical; details: In Vitro Enzyme Assay, cyclin D1/cdk 4, read-out: CDK4 IC50
T1 construct: made in house; host or cells: Sf9 insect cells, recombinant baculovirus
T1 sequence (P11802 whole entry, species assumed): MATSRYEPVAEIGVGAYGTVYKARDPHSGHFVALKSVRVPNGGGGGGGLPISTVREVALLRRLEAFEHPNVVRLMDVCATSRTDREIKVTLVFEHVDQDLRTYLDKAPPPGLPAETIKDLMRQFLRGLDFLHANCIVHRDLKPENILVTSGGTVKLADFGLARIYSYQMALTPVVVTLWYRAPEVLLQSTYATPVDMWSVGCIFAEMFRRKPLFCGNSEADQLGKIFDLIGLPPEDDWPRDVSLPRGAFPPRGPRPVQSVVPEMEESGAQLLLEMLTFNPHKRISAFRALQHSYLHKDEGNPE
T1 sequence (P24385 whole entry partner, species assumed): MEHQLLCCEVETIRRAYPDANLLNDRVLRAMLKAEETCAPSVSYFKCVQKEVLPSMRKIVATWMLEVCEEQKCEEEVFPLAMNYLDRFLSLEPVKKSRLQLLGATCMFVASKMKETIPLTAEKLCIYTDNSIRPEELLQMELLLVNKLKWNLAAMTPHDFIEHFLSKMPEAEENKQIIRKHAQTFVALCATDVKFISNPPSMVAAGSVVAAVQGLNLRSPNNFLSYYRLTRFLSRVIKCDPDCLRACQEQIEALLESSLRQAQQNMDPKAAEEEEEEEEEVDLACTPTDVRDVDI
Method in brief: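 Partially purified Sf9-expressed cyclin D1/CDK4, cyclin E/CDK2 or cyclin B/CDK1 phosphorylated plate-bound GST-Rb C-terminal fragment with 200 μM ATP at 30° C for 1 h.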

SMILES: CCCCN(C)CCN(C)c1ccc(NC=C2C(=O)NC(=O)c3ccc(Br)cc32)cc1 (stereo in doubt) [Example 257, (4Z)-6-Bromo-4-[({4-[{2-[butyl(methyl)amino]ethyl}(methyl)amino]phenyl}amino)methylene]isoquinoline-1,3(2H,4H)-dione]
IC50 ([1]; BT474 cells, SRB, 6 days): 6.5 µM | IC50 ([2]; HCT116 cells, SRB, three days): 2.5 µM | IC50 ([3]; LoVo cells, SRB, three days): 4.7 µM | IC50 ([4]; MCF-7 cells, SRB, three days): 3.6 µM

SMILES: CCCCN(C)CCN(C)c1ccc(NC=C2C(=O)NC(=O)c3ccc(Br)cc32)cc1 (stereo in doubt) [Example 866, (4Z)-6-Bromo-4-[({4-[{2-[butyl(methyl)amino]ethyl}(methyl)amino]phenyl}amino)methylene]isoquinoline-1,3(2H,4H)-dione]
IC50 ([1]; BT474 cells, 6 days, SRB): 6.5 µM | IC50 ([2]; HCT116 cells, 3 days, SRB): 2.5 µM | IC50 ([3]; LoVo cells, 3 days, SRB): 4.7 µM | IC50 ([4]; MCF-7 cells, 3 days, SRB): 3.6 µM

SMILES: CN(CCN1CCOCC1)c1ccc(NC=C2C(=O)NC(=O)c3ccc(Br)cc32)cc1 (stereo in doubt) [Example 871, (4Z)-6-Bromo-4-[({4-[methyl(2-morpholin-4-ylethyl)amino]phenyl}amino)methylene]isoquinoline-1,3(2H,4H)-dione]
IC50 ([1]; BT474 cells, 6 days, SRB): > 50 µM | IC50 ([2]; HCT116 cells, 3 days, SRB): 13.9 µM | IC50 ([3]; LoVo cells, 3 days, SRB): 46.6 µM | IC50 ([4]; MCF-7 cells, 3 days, SRB): 29.1 µM

SMILES: CN1C(=O)/C(=C\Nc2ccc(CN3CCCCC3)cc2)c2ccccc2C1=O [Example 49, (4Z)-2-Methyl-4-{[(4-piperidin-1-ylmethyl)phenyl]amino}methyleneisoquinoline-1,3(2H,4H)-dione]
IC50 [1]: 6.85 µM | IC50 [2]: 5.5 µM | IC50 [3]: 11.5 µM | IC50 [4]: 13 µM

SMILES: O=C1NC(=O)c2ccc(Br)cc2/C1=C/NCc1ccc2cc[nH]c2c1 [Example 129, (4Z)-6-Bromo-4-{[(1H-indol-6-ylmethyl)amino]methylene}isoquinoline-1,3(2H,4H)-dione]
IC50 ([1]; BT474 cells, SRB, 6 days): 30 µM | IC50 ([2]; HCT116 cells, SRB, three days): 26 µM | IC50 ([3]; LoVo cells, SRB, three days): > 50 µM | IC50 ([4]; MCF-7 cells, SRB, three days): 39 µM

SMILES: COc1ccc(CN/C(C)=C2\C(=O)NC(=O)CC2c2ccccc2)cc1O (stereo not shown) [Example 140, (3Z)-3-{1-[(3-hydroxy-4-methoxybenzyl)amino]ethylidene}-4-phenylpiperidine-2,6-dione]
IC50 ([1]; BT474 cells, SRB, 6 days): 30 µM | IC50 ([2]; HCT116 cells, SRB, three days): > 50 µM | IC50 ([3]; LoVo cells, SRB, three days): > 50 µM | IC50 ([4]; MCF-7 cells, SRB, three days): > 50 µM

SMILES: O=C1NC(=O)c2ccc(Br)cc2/C1=C/NCc1ccc(OCCOCc2ccccc2)c(O)c1 [Example 159]
IC50 ([1]; BT474 cells, SRB, 6 days): 25 µM | IC50 ([2]; HCT116 cells, SRB, three days): 16 µM | IC50 ([3]; LoVo cells, SRB, three days): 18 µM | IC50 ([4]; MCF-7 cells, SRB, three days): > 50 µM

SMILES: COc1ccc(CN/C=C2\C(=O)N(C(C)=O)N(C(C)=O)c3ccccc32)cc1O [Example 167, (4Z)-1,2-Diacetyl-4-{[(3-hydroxy-4-methoxybenzyl)amino]methylene}-1,4-dihydrocinnolin-3(2H)-one]
IC50 ([1]; BT474 cells, SRB, 6 days): 9.6 µM | IC50 ([2]; HCT116 cells, SRB, three days): 11 µM | IC50 ([3]; LoVo cells, SRB, three days): 12 µM | IC50 ([4]; MCF-7 cells, SRB, three days): 13 µM

SMILES: O=C1NC(=O)c2ccc(Br)cc2/C1=C/NCc1ccccc1O [Example 174, (4Z)-6-Bromo-4-{[(2-hydroxybenzyl)amino]methylene}isoquinoline-1,3(2H,4H)-dione]
IC50 ([1]; BT474 cells, SRB, 6 days): 30 µM | IC50 ([2]; HCT116 cells, SRB, three days): 19 µM | IC50 ([3]; LoVo cells, SRB, three days): 35 µM | IC50 ([4]; MCF-7 cells, SRB, three days): 50 µM

SMILES: COc1ccc(CN/C=C2\C(=O)NC(=O)c3ccc(Br)cc32)cc1F [Example 181, (4Z)-6-Bromo-4-{[(3-fluoro-4-methoxybenzyl)amino]methylene}isoquinoline-1,3(2H,4H)-dione]
IC50 ([1]; BT474 cells, SRB, 6 days): > 50 µM | IC50 ([2]; HCT116 cells, SRB, three days): 16 µM | IC50 ([3]; LoVo cells, SRB, three days): > 50 µM | IC50 ([4]; MCF-7 cells, SRB, three days): > 50 µM

SMILES: CN1CCN(c2ccc(N/C=C3\C(=O)NCc4ccc(Br)cc43)cc2)CC1 [Example 223, (4Z)-6-Bromo-4-({[4-(4-methylpiperazin-1-yl)phenyl]amino}methylene)-1,4-dihydroisoquinolin-3(2H)-one]
IC50 ([1]; BT474 cells, SRB, 6 days): 8.7 µM | IC50 ([2]; HCT116 cells, SRB, three days): 4.1 µM | IC50 ([3]; LoVo cells, SRB, three days): 2.8 µM | IC50 ([4]; MCF-7 cells, SRB, three days): 3.2 µM

SMILES: O=C1NC(=O)c2ccc(Br)cc2/C1=C/Nc1ccc2ncccc2c1 [Example 271, (4Z)-6-Bromo-4-[(quinolin-6-ylamino)methylene]isoquinoline-1,3(2H,4H)-dione]
IC50 ([1]; BT474 cells, SRB, 6 days): 32 µM | IC50 ([2]; HCT116 cells, SRB, three days): 46 µM | IC50 ([3]; LoVo cells, SRB, three days): > 50 µM | IC50 ([4]; MCF-7 cells, SRB, three days): 39 µM

SMILES: CCOP(=O)(OCC)c1ccc2c(c1)/C(=C/Nc1ccc(N3CCN(C)CC3)cc1)C(=O)NC2=O [Example 284, Diethyl [(4Z)-4-({[4-(4-methylpiperazin-1-yl)phenyl]amino}methylene)-1,3-dioxo-1,2,3,4-tetrahydroisoquinolin-6-yl]phosphonate]
IC50 [1]: > 50 µM | IC50 [2]: 20 µM | IC50 [3]: 25 µM | IC50 [4]: 12 µM

SMILES: CC(C)(C)OC(=O)N1CCN(c2ccc(N/C=C3\C(=O)NC(=O)c4ccc(Br)cc43)cc2)CC1 [Example 294, tert-Butyl 4-(4-{[(Z)-(6-bromo-1,3-dioxo-2,3-dihydroisoquinolin-4(1H)-ylidene)methyl]amino}phenyl)piperazine-1-carboxylate]
IC50 ([1]; BT474 cells, SRB, 6 days): 49 µM | IC50 ([2]; HCT116 cells, SRB, three days): 9 µM | IC50 ([3]; LoVo cells, SRB, three days): > 50 µM | IC50 ([4]; MCF-7 cells, SRB, three days): 24 µM

SMILES: O=C1NC(=O)c2ccc(Br)cc2/C1=C/NCc1ccc(NC(=O)C(Cl)Cl)cc1 [Example 302, N-[4-({[(Z)-(6-Bromo-1,3-dioxo-2,3-dihydroisoquinolin-4(1H)-ylidene)methyl]amino}methyl)phenyl]-2,2-dichloroacetamide]
IC50 ([1]; BT474 cells, SRB, 6 days): 0.56 µM | IC50 ([2]; HCT116 cells, SRB, three days): 0.55 µM | IC50 ([3]; LoVo cells, SRB, three days): 0.59 µM | IC50 ([4]; MCF-7 cells, SRB, three days): 1.2 µM

SMILES: O=C1NC(=O)c2ccc(Br)cc2C1=CNc1ccc(-c2ccncc2)cc1 [Example 329, 6-Bromo-4-[(4-pyridin-4-yl-phenylamino)-methylene]-4H-isoquinoline-1,3-dione]
IC50 ([1]; BT474 cells, SRB, 6 days): 18.5 µM | IC50 ([2]; HCT116 cells, SRB, three days): 4.7 µM | IC50 ([3]; LoVo cells, SRB, three days): 30 µM | IC50 ([4]; MCF-7 cells, SRB, three days): 14 µM

SMILES: CC(C)(C)OC(=O)N1CCN(c2ccc(N/C=C3\C(=O)NC(=O)c4ccc(I)cc43)cc2)CC1 [Example 377, tert-Butyl 4-(4-{[(Z)-(6-iodo-1,3-dioxo-2,3-dihydroisoquinolin-4(1H)-ylidene)methyl]amino}phenyl)piperazine-1-carboxylate]
IC50 ([1]; BT474 cells, SRB, 6 days): > 50 µM | IC50 ([2]; HCT116 cells, SRB, three days): 11 µM | IC50 ([3]; LoVo cells, SRB, three days): > 50 µM | IC50 ([4]; MCF-7 cells, SRB, three days): > 50 µM

SMILES: O=C1NC(=O)c2ccc(I)cc2/C1=C/Nc1ccc(C2=NCCC2)cc1 [Example 403, 4-{[4-(4,5-Dihydro-3H-pyrrol-2-yl)-phenylamino]-methylene}-6-iodo-4H-isoquinoline-1,3-dione]
IC50 ([1]; BT474 cells, 6 days, SRB): 40 µM | IC50 ([2]; HCT116 cells, 3 days, SRB): 41.5 µM | IC50 ([3]; LoVo cells, 3 days, SRB): > 50 µM | IC50 ([4]; MCF-7 cells, 3 days, SRB): > 50 µM

SMILES: CC(C)(C)OC(=O)N1CCN(c2ccc(N/C=C3\C(=O)NC(=O)c4ccc(I)cc43)cn2)CC1 [Example 409, tert-Butyl 4-(5-{[(Z)-(6-iodo-1,3-dioxo-2,3-dihydroisoquinolin-4(1H)-ylidene)methyl]amino}pyridin-2-yl)piperazine-1-carboxylate]
IC50 ([1]; BT474 cells, 6 days, SRB): 41.6 µM | IC50 ([2]; HCT116 cells, 3 days, SRB): 25.6 µM | IC50 ([3]; LoVo cells, 3 days, SRB): 6.4 µM | IC50 ([4]; MCF-7 cells, 3 days, SRB): 36.6 µM

SMILES: CN1CCN(c2ccc(N/C=C3\C(=O)NC(C)(C)c4ccc(Br)cc43)cc2)CC1 [Example 452, 6-Bromo-1,1-dimethyl-4-{[4-(4-methyl-piperazin-1-yl)-phenylamino]-methylene}-1,4-dihydro-2H-isoquinolin-3-one]
IC50 ([1]; BT474 cells, 6 days, SRB): 9.3 µM | IC50 ([2]; HCT116 cells, 3 days, SRB): 3.1 µM | IC50 ([3]; LoVo cells, 3 days, SRB): 1.5 µM | IC50 ([4]; MCF-7 cells, 3 days, SRB): 3.3 µM

IC50 [5]: 26.5 µM
SMILES: CN1CCN(c2ccc(NC=C3C(=O)NC(=O)c4ccc(C=Cc5ccc([N+](=O)[O-])cc5)cc43)cc2)CC1 [Example 829, 4-{[4-(4-Methyl-piperazin-1-yl)-phenylamino]-methylene}-6-[2-(4-nitro-phenyl)-vinyl]-4H-isoquinoline-1,3-dione]

IC50 [5]: 31 µM
SMILES: COc1ccc(NC=C2C(=O)NCc3cc(Br)ccc32)cc1O [Example 862, 7-Bromo-4-[(3-hydroxy-4-methoxy-phenylamino)-methylene]-1,4-dihydro-2H-isoquinolin-3-one]
